A compilation of properties of binary mixtures (doi:10.1021/acs.jced.9b00648)

Experiment: xn = mol fraction of the nth substance listed
Conditions: 100 kPa

`O=S(=O)([N-]S(=O)(=O)C(F)(F)F)C(F)(F)F.[Li+]` + CC#N gave an electrical conductivity (298.15 K, x1 = 0.0207) of 2.67 S/m, an electrical conductivity (298.15 K, x1 = 0.0307) of 3.11 S/m and an electrical conductivity (298.15 K, x1 = 0.0405) of 3.53 S/m. For the same compound, the electrical conductivity (298.15 K, x1 = 0.0501) was 3.93 S/m, the electrical conductivity (298.15 K, x1 = 0.0596) was 4.07 S/m and the electrical conductivity (298.15 K, x1 = 0.0688) was 3.93 S/m. It also gave an electrical conductivity (298.15 K, x1 = 0.0779) of 3.82 S/m, an electrical conductivity (298.15 K, x1 = 0.0868) of 3.65 S/m and an electrical conductivity (303.15 K, x1 = 0.0405) of 3.68 S/m. For the same compound, the electrical conductivity (303.15 K, x1 = 0.0501) was 4.1 S/m, the electrical conductivity (303.15 K, x1 = 0.0596) was 4.25 S/m and the electrical conductivity (303.15 K, x1 = 0.0688) was 4.12 S/m. For the same compound, the electrical conductivity (303.15 K, x1 = 0.0779) was 4.01 S/m, the electrical conductivity (303.15 K, x1 = 0.0868) was 3.84 S/m and the electrical conductivity (308.15 K, x1 = 0.0207) was 2.91 S/m. It also gave an electrical conductivity (308.15 K, x1 = 0.0596) of 4.45 S/m, an electrical conductivity (308.15 K, x1 = 0.0688) of 4.33 S/m and an electrical conductivity (308.15 K, x1 = 0.0868) of 4.05 S/m. It also gave an electrical conductivity (313.15 K, x1 = 0.0307) of 3.47 S/m, an electrical conductivity (313.15 K, x1 = 0.0405) of 4.01 S/m and an electrical conductivity (313.15 K, x1 = 0.0501) of 4.47 S/m. The electrical conductivity (313.15 K, x1 = 0.0596) was 4.63 S/m, the electrical conductivity (313.15 K, x1 = 0.0688) was 4.53 S/m and the electrical conductivity (313.15 K, x1 = 0.0868) was 4.26 S/m. The electrical conductivity (318.15 K, x1 = 0.0207) was 3.14 S/m, the electrical conductivity (318.15 K, x1 = 0.0307) was 3.58 S/m and the electrical conductivity (318.15 K, x1 = 0.0596) was 4.8 S/m. For the same compound, the electrical conductivity (318.15 K, x1 = 0.0688) was 4.7 S/m, the electrical conductivity (318.15 K, x1 = 0.0779) was 4.52 S/m and the electrical conductivity (318.15 K, x1 = 0.0868) was 4.45 S/m. It also gave an electrical conductivity (323.15 K, x1 = 0.0207) of 3.24 S/m, an electrical conductivity (323.15 K, x1 = 0.0307) of 3.7 S/m and an electrical conductivity (323.15 K, x1 = 0.0405) of 4.29 S/m. For the same compound, the electrical conductivity (323.15 K, x1 = 0.0501) was 4.81 S/m, the electrical conductivity (323.15 K, x1 = 0.0688) was 4.87 S/m and the electrical conductivity (323.15 K, x1 = 0.0779) was 4.74 S/m. It also gave an electrical conductivity (323.15 K, x1 = 0.0868) of 4.63 S/m, an electrical conductivity (328.15 K, x1 = 0.0207) of 3.34 S/m and an electrical conductivity (328.15 K, x1 = 0.0307) of 3.81 S/m. It also gave an electrical conductivity (328.15 K, x1 = 0.0405) of 4.43 S/m, an electrical conductivity (328.15 K, x1 = 0.0688) of 5.05 S/m and an electrical conductivity (328.15 K, x1 = 0.0779) of 4.95 S/m. The electrical conductivity (328.15 K, x1 = 0.0868) was 4.82 S/m, the electrical conductivity (333.15 K, x1 = 0.0207) was 3.47 S/m and the electrical conductivity (333.15 K, x1 = 0.0307) was 3.92 S/m. For the same compound, the electrical conductivity (333.15 K, x1 = 0.0405) was 4.57 S/m, the electrical conductivity (333.15 K, x1 = 0.0501) was 5.16 S/m and the electrical conductivity (333.15 K, x1 = 0.0688) was 5.24 S/m. The electrical conductivity (333.15 K, x1 = 0.0779) was 5.17 S/m and the electrical conductivity (333.15 K, x1 = 0.0868) was 4.99 S/m.

Compound `CC#N` + C=C[n+]1ccn(CC(N)=O)c1.O=S(=O)([N-]S(=O)(=O)C(F)(F)F)C(F)(F)F has a viscosity (298.15 K, x2 = 0) of 0.344 mPa·s, a viscosity (303.15 K, x2 = 0) of 0.324 mPa·s and a viscosity (308.15 K, x2 = 0) of 0.308 mPa·s. It also gave a viscosity (313.15 K, x2 = 0) of 0.293 mPa·s, a viscosity (318.15 K, x2 = 0) of 0.277 mPa·s and a viscosity (328.15 K, x2 = 0) of 0.246 mPa·s. It also gave a viscosity (333.15 K, x2 = 0) of 0.219 mPa·s.

`C=C[n+]1ccn(CC(N)=O)c1.O=S(=O)([N-]S(=O)(=O)C(F)(F)F)C(F)(F)F` + CC#N gave an electrical conductivity (298.15 K, x1 = 0.02) of 2.52 S/m, an electrical conductivity (298.15 K, x1 = 0.047) of 3.16 S/m and a viscosity (298.15 K, x1 = 0.05) of 2.88 mPa·s. The electrical conductivity (298.15 K, x1 = 0.07) was 3.32 S/m, the electrical conductivity (298.15 K, x1 = 0.08) was 3.26 S/m and the electrical conductivity (298.15 K, x1 = 0.1) was 3.06 S/m. For the same compound, the viscosity (298.15 K, x1 = 0.1) was 10.3 mPa·s, the electrical conductivity (298.15 K, x1 = 0.2) was 1.6 S/m and the viscosity (298.15 K, x1 = 0.201) was 75 mPa·s. For the same compound, the viscosity (298.15 K, x1 = 0.3026) was 276 mPa·s, the electrical conductivity (298.15 K, x1 = 0.393) was 0.39 S/m and the viscosity (298.15 K, x1 = 0.4011) was 810 mPa·s. For the same compound, the electrical conductivity (298.15 K, x1 = 1) was 0.01 S/m, the viscosity (298.15 K, x1 = 1) was 281 mPa·s and the electrical conductivity (303.15 K, x1 = 0.01) was 1.34 S/m. For the same compound, the viscosity (303.15 K, x1 = 0.01) was 0.64 mPa·s, the electrical conductivity (303.15 K, x1 = 0.02) was 2.64 S/m and the electrical conductivity (303.15 K, x1 = 0.047) was 3.32 S/m. For the same compound, the viscosity (303.15 K, x1 = 0.05) was 2.84 mPa·s, the electrical conductivity (303.15 K, x1 = 0.08) was 3.47 S/m and the viscosity (303.15 K, x1 = 0.3026) was 247 mPa·s. The electrical conductivity (303.15 K, x1 = 1) was 0.02 S/m, the viscosity (303.15 K, x1 = 1) was 140 mPa·s and the electrical conductivity (308.15 K, x1 = 0.047) was 3.52 S/m. The viscosity (308.15 K, x1 = 0.05) was 2.71 mPa·s, the electrical conductivity (308.15 K, x1 = 0.07) was 3.74 S/m and the electrical conductivity (308.15 K, x1 = 0.08) was 3.72 S/m. It also gave an electrical conductivity (308.15 K, x1 = 0.1) of 3.53 S/m, a viscosity (308.15 K, x1 = 0.1) of 9.2 mPa·s and an electrical conductivity (308.15 K, x1 = 0.2) of 1.98 S/m. It also gave a viscosity (308.15 K, x1 = 0.3026) of 202 mPa·s, an electrical conductivity (308.15 K, x1 = 0.393) of 0.6 S/m and a viscosity (308.15 K, x1 = 0.4011) of 550 mPa·s. For the same compound, the electrical conductivity (313.15 K, x1 = 0.01) was 1.47 S/m, the viscosity (313.15 K, x1 = 0.01) was 0.57 mPa·s and the electrical conductivity (313.15 K, x1 = 0.02) was 2.9 S/m. The electrical conductivity (313.15 K, x1 = 0.047) was 3.7 S/m, the viscosity (313.15 K, x1 = 0.05) was 2.49 mPa·s and the electrical conductivity (313.15 K, x1 = 0.07) was 3.96 S/m. For the same compound, the electrical conductivity (313.15 K, x1 = 0.08) was 3.95 S/m, the electrical conductivity (313.15 K, x1 = 0.2) was 2.19 S/m and the viscosity (313.15 K, x1 = 0.201) was 51 mPa·s. For the same compound, the viscosity (313.15 K, x1 = 0.3026) was 163 mPa·s, the electrical conductivity (313.15 K, x1 = 0.393) was 0.73 S/m and the electrical conductivity (313.15 K, x1 = 1) was 0.05 S/m. It also gave a viscosity (313.15 K, x1 = 1) of 35.3 mPa·s, an electrical conductivity (318.15 K, x1 = 0.02) of 3.01 S/m and a viscosity (318.15 K, x1 = 0.05) of 2.39 mPa·s. The electrical conductivity (318.15 K, x1 = 0.07) was 4.16 S/m, the electrical conductivity (318.15 K, x1 = 0.08) was 4.17 S/m and the electrical conductivity (318.15 K, x1 = 0.1) was 4.02 S/m. For the same compound, the viscosity (318.15 K, x1 = 0.1) was 7.7 mPa·s, the viscosity (318.15 K, x1 = 0.201) was 45.9 mPa·s and the viscosity (318.15 K, x1 = 0.3026) was 142 mPa·s. It also gave an electrical conductivity (318.15 K, x1 = 0.393) of 0.86 S/m, a viscosity (318.15 K, x1 = 0.4011) of 352 mPa·s and an electrical conductivity (318.15 K, x1 = 1) of 0.07 S/m. For the same compound, the viscosity (318.15 K, x1 = 1) was 19.8 mPa·s, the electrical conductivity (323.15 K, x1 = 0.01) was 1.58 S/m and the viscosity (323.15 K, x1 = 0.01) was 0.52 mPa·s. The electrical conductivity (323.15 K, x1 = 0.02) was 3.13 S/m, the electrical conductivity (323.15 K, x1 = 0.047) was 4.03 S/m and the viscosity (323.15 K, x1 = 0.05) was 2.26 mPa·s. It also gave an electrical conductivity (323.15 K, x1 = 0.07) of 4.36 S/m, an electrical conductivity (323.15 K, x1 = 0.1) of 4.25 S/m and a viscosity (323.15 K, x1 = 0.1) of 7 mPa·s. It also gave a viscosity (323.15 K, x1 = 0.201) of 40.2 mPa·s, an electrical conductivity (323.15 K, x1 = 0.393) of 1 S/m and a viscosity (323.15 K, x1 = 0.4011) of 288 mPa·s. For the same compound, the electrical conductivity (328.15 K, x1 = 0.01) was 1.65 S/m, the viscosity (328.15 K, x1 = 0.01) was 0.48 mPa·s and the electrical conductivity (328.15 K, x1 = 0.02) was 3.25 S/m. It also gave an electrical conductivity (328.15 K, x1 = 0.047) of 4.19 S/m, a viscosity (328.15 K, x1 = 0.05) of 2.17 mPa·s and an electrical conductivity (328.15 K, x1 = 0.08) of 4.61 S/m. The electrical conductivity (328.15 K, x1 = 0.2) was 2.8 S/m, the viscosity (328.15 K, x1 = 0.201) was 36.8 mPa·s and the viscosity (328.15 K, x1 = 0.3026) was 105 mPa·s. It also gave an electrical conductivity (328.15 K, x1 = 0.393) of 1.16 S/m, an electrical conductivity (333.15 K, x1 = 0.01) of 1.69 S/m and a viscosity (333.15 K, x1 = 0.01) of 0.47 mPa·s. For the same compound, the electrical conductivity (333.15 K, x1 = 0.02) was 3.35 S/m, the viscosity (333.15 K, x1 = 0.05) was 2.01 mPa·s and the electrical conductivity (333.15 K, x1 = 0.07) was 4.79 S/m. The electrical conductivity (333.15 K, x1 = 0.08) was 4.77 S/m, the electrical conductivity (333.15 K, x1 = 0.1) was 4.72 S/m and the viscosity (333.15 K, x1 = 0.1) was 6.1 mPa·s. It also gave an electrical conductivity (333.15 K, x1 = 0.2) of 3 S/m, a viscosity (333.15 K, x1 = 0.3026) of 90 mPa·s and an electrical conductivity (333.15 K, x1 = 0.393) of 1.33 S/m. For the same compound, the viscosity (333.15 K, x1 = 0.4011) was 193 mPa·s, the electrical conductivity (333.15 K, x1 = 1) was 0.2 S/m and the viscosity (333.15 K, x1 = 1) was 6.2 mPa·s.
